Source: publication PMC8568899, “Molecular mechanisms of the CdnG-Cap5 antiphage defense system employing 3′,2′-cGAMP as the second messenger” (Nature Communications, 2021)
Positions count from the first letter of the chain named.

Legend:
Assay in all cases: DNA degradation, agarose gel
Assay type in all cases: biochemical
AsCap5 [1] = target: T1, AsCap5 (Asticcacaulis sp., UniProt Z9IC27YPF2); settings: activator; 50 nM Cap5, linearized plasmid 25 nM; 1 mM MgCl2, 0.5 mM MnCl2, pH 7.4, 37 °C, 15 min; 10-fold dilution steps
T1 construct: full length; E. coli BL21(DE3), N-terminal 6xHis-SUMO tag cut with Ulp1; codon-optimized gene; homodimer (N-terminal HNH, C-terminal SAVED)
T1 sequence (Z9IC27YPF2 1-384): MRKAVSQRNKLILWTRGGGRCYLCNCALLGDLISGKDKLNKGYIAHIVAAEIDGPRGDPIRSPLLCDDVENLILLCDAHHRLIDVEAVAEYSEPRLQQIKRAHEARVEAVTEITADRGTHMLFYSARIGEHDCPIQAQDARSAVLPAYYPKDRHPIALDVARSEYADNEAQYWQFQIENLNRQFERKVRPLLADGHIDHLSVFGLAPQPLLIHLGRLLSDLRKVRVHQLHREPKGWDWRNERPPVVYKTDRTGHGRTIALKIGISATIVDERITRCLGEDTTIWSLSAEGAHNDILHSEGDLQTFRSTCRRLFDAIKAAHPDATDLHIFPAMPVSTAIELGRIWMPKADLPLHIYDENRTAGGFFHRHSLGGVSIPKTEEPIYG

LlCap5 [2] = target: T2, LlCap5 (Lactococcus cremoris, UniProt A0A1E7G0A2); settings: activator; 50 nM Cap5, linearized plasmid 25 nM; 1 mM MgCl2, 0.5 mM MnCl2, pH 7.4, 37 °C, 15 min; 10-fold dilution steps
T2 construct: gene AJ89_14580; full length; E. coli BL21(DE3), N-terminal 6xHis-SUMO tag cut with Ulp1; codon-optimized gene; homodimer (N-terminal HNH, C-terminal SAVED)

AsCap5 [3] = target: T3, AsCap5 (Asticcacaulis sp., UniProt Z9IC27YPF2, D349A); settings: activator; 10 nM cGAMP; linearized plasmid 25 nM; 1 mM MgCl2, 0.5 mM MnCl2, pH 7.4, 37 °C, 15 min
T3 construct: full length; E. coli BL21(DE3), N-terminal 6xHis-SUMO tag cut with Ulp1; codon-optimized gene; homodimer (N-terminal HNH, C-terminal SAVED)
T3 sequence (Z9IC27YPF2 1-384 D349A): T1 sequence (Z9IC27YPF2 1-384) with D349A

AsCap5 [4] = target: T4, AsCap5 (Asticcacaulis sp., UniProt Z9IC27YPF2, R310Q); settings: activator; 10 nM cGAMP; linearized plasmid 25 nM; 1 mM MgCl2, 0.5 mM MnCl2, pH 7.4, 37 °C, 15 min
T4 construct: full length; E. coli BL21(DE3), N-terminal 6xHis-SUMO tag cut with Ulp1; codon-optimized gene; homodimer (N-terminal HNH, C-terminal SAVED)
T4 sequence (Z9IC27YPF2 1-384 R310Q): T1 sequence (Z9IC27YPF2 1-384) with R310Q

AsCap5 [5] = target: T5, AsCap5 (Asticcacaulis sp., UniProt Z9IC27YPF2, K347A); settings: activator; 10 nM cGAMP; linearized plasmid 25 nM; 1 mM MgCl2, 0.5 mM MnCl2, pH 7.4, 37 °C, 15 min
T5 construct: full length; E. coli BL21(DE3), N-terminal 6xHis-SUMO tag cut with Ulp1; codon-optimized gene; homodimer (N-terminal HNH, C-terminal SAVED)
T5 sequence (Z9IC27YPF2 1-384 K347A): T1 sequence (Z9IC27YPF2 1-384) with K347A

AsCap5 [6] = target: T6, AsCap5 (Asticcacaulis sp., UniProt Z9IC27YPF2, K347Q); settings: activator; 10 nM cGAMP; linearized plasmid 25 nM; 1 mM MgCl2, 0.5 mM MnCl2, pH 7.4, 37 °C, 15 min
T6 construct: full length; E. coli BL21(DE3), N-terminal 6xHis-SUMO tag cut with Ulp1; codon-optimized gene; homodimer (N-terminal HNH, C-terminal SAVED)
T6 sequence (Z9IC27YPF2 1-384 K347Q): T1 sequence (Z9IC27YPF2 1-384) with K347Q

AsCap5 [7] = target: T7, AsCap5 (Asticcacaulis sp., UniProt Z9IC27YPF2, K347R); settings: activator; 10 nM cGAMP; linearized plasmid 25 nM; 1 mM MgCl2, 0.5 mM MnCl2, pH 7.4, 37 °C, 15 min
T7 construct: full length; E. coli BL21(DE3), N-terminal 6xHis-SUMO tag cut with Ulp1; codon-optimized gene; homodimer (N-terminal HNH, C-terminal SAVED)
T7 sequence (Z9IC27YPF2 1-384 K347R): T1 sequence (Z9IC27YPF2 1-384) with K347R

AsCap5 [8] = target: T8, AsCap5 (Asticcacaulis sp., UniProt Z9IC27YPF2, R310K); settings: activator; 10 nM cGAMP; linearized plasmid 25 nM; 1 mM MgCl2, 0.5 mM MnCl2, pH 7.4, 37 °C, 15 min
T8 construct: full length; E. coli BL21(DE3), N-terminal 6xHis-SUMO tag cut with Ulp1; codon-optimized gene; homodimer (N-terminal HNH, C-terminal SAVED)
T8 sequence (Z9IC27YPF2 1-384 R310K): T1 sequence (Z9IC27YPF2 1-384) with R310K

AsCap5 [9] = target: T1, AsCap5; settings: activator; 50 nM Cap5, linearized plasmid 25 nM; 1 mM MgCl2, 0.5 mM MnCl2, pH 7.4, 37 °C, 15 min; 10-fold dilution steps; remark: listed apart in the source
LlCap5 [10] = target: T2, LlCap5; settings: activator; 50 nM Cap5, linearized plasmid 25 nM; 1 mM MgCl2, 0.5 mM MnCl2, pH 7.4, 37 °C, 15 min; 10-fold dilution steps; remark: listed apart in the source
AsCap5 [11] = target: T9, AsCap5 (Asticcacaulis sp., UniProt Z9IC27YPF2, D220A); settings: activator; 10 nM cGAMP; linearized plasmid 25 nM; 1 mM MgCl2, 0.5 mM MnCl2, pH 7.4, 37 °C, 15 min
T9 construct: full length; E. coli BL21(DE3), N-terminal 6xHis-SUMO tag cut with Ulp1; codon-optimized gene; homodimer (N-terminal HNH, C-terminal SAVED)
T9 sequence (Z9IC27YPF2 1-384 D220A): T1 sequence (Z9IC27YPF2 1-384) with D220A

T2 sequence (A0A1E7G0A2 entry or part of it): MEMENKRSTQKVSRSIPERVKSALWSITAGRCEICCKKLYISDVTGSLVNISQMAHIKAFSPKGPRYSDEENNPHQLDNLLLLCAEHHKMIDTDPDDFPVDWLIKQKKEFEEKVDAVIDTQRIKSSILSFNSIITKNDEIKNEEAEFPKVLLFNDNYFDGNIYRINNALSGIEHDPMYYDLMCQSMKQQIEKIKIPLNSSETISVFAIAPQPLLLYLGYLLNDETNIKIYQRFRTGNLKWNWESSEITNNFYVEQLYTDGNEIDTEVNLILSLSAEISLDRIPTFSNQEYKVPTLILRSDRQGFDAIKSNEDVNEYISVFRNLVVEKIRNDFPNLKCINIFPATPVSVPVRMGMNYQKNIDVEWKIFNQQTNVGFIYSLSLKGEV

| Structure (SMILES) | concentration giving same degradation as 10 nM 3′,2′-cGAMP (AsCap5 [1]) | concentration giving same degradation as 10 nM 3′,2′-cGAMP (LlCap5 [2]) | estimated activity (AsCap5 [3]) | estimated activity (AsCap5 [4]) | % reduction of activity (AsCap5 [5]) | estimated activity (AsCap5 [6]) | fold less active than wild type (AsCap5 [7]) | estimated activity (AsCap5 [8]) | concentration giving significant DNA degradation (AsCap5 [9]) | concentration giving significant DNA degradation (LlCap5 [10]) | estimated activity (% of wild type) (AsCap5 [11]) |
| --- | --- | --- | --- | --- | --- | --- | --- | --- | --- | --- | --- |
| Nc1nc2c(ncn2[C@@H]2O[C@@H]3COP(=O)(O)O[C@H]4[C@@H](O)[C@H](n5cnc6c(N)ncnc65)O[C@@H]4COP(=O)(O)O[C@H]3[C@H]2O)c(=O)[nH]1 [3′,3′-cGAMP] | ~ 100 μM | ~ 100 μM | – | – | – | – | – | – | – | – | – |
| Nc1nc2c(ncn2[C@@H]2O[C@@H]3COP(=O)(O)O[C@@H]4[C@H](O)[C@@H](COP(=O)(O)O[C@H]3[C@H]2O)O[C@H]4n2cnc3c(N)ncnc32)c(=O)[nH]1 [3′,2′-cGAMP] | – | – | D349A mutation showed a similar degree of reduced activity as D220A mutation | R310K and R310Q mutants, and both also showed significantly reduced activities | ~ 98% | it was even less active than K347A mutant | ~ 10 fold | R310K and R310Q mutants, and both also showed significantly reduced activities | ~ 10 nM | ~ 10 nM | ~ 15% |
